Columns and labels:
Design in all cases: scale not given here
[1] = test system: SETVI Foxtail, Green; test: Postemergence herbicidal evaluation, SETVI; assay type: in vivo, Setaria viridis, (L.) Beau; settings: postemergence spray, rated about two-three weeks after treatment
How it was run: (§1)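 Visual injury rating ~2–3 wk post-spray; replicate tests averaged. Two-week-old seedlings; foliar spray at 40 psi; 0.006–0.400 kg ai/ha in 80/20 acetone/water + 1.0% methylated seed oil.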

[2] = test system: ORYSAT Rice, Tebonnet; test: Postemergence herbicidal evaluation, ORYSAT; assay type: in vivo, Oryza sativa, (L.); settings: postemergence spray, rated about two-three weeks after treatment
How it was run: as §1

[3] = test system: ZEAMX Corn, Field; test: Postemergence herbicidal evaluation, ZEAMX; assay type: in vivo, Zea mays, L. (Sammel-Bezeichnung); settings: postemergence spray, rated about two-three weeks after treatment
How it was run: as §1

[4] = test system: GALAP Galium; test: Preemergence herbicidal evaluation, GALAP; assay type: in vivo, Galium aparine; settings: preemergence
How it was run: (§2)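 Seeds mixed with potting soil were planted on about one inch of soil in cups, then sprayed with the test compound in aqueous acetone at roughly 0.013 to 0.800 kg per hectare. Plants were kept under standard greenhouse care and injury was rated four to five weeks after treatment.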

[5] = test system: AMBEL Ragweed, Common; test: Postemergence herbicidal evaluation, AMBEL; assay type: in vivo, Ambrosia artemisifolia, L.; settings: postemergence spray, rated about two-three weeks after treatment
How it was run: as §1

[6] = test system: TRZAWR Wheat, Winter, cv Riband; test: Postemergence herbicidal evaluation, TRZAWR; assay type: in vivo, Triticum aestivum; settings: postemergence spray, rated about two-three weeks after treatment
How it was run: as §1

[7] = test system: TRZAWR Wheat, Winter, cv Riband; test: Preemergence herbicidal evaluation, TRZAWR; assay type: in vivo, Triticum aestivum; settings: preemergence
How it was run: as §2

[8] = test system: ECHOG Barnyardgrass; test: Preemergence herbicidal evaluation, ECHOG; assay type: in vivo, Echinochloa crus-galli, (L.) Beau; settings: preemergence
How it was run: as §2

[9] = test system: ORYSAT Rice, Tebonnet; test: Preemergence herbicidal evaluation, ORYSAT; assay type: in vivo, Oryza sativa, (L.); settings: preemergence
How it was run: as §2

[10] = test system: ABUTH Velvetleaf; test: Preemergence herbicidal evaluation, ABUTH; assay type: in vivo, Abutilon theophrasti, Medic.; settings: preemergence
How it was run: as §2

[11] = test system: ABUTH Velvetleaf; test: Postemergence herbicidal evaluation, ABUTH; assay type: in vivo, Abutilon theophrasti, Medic.; settings: postemergence spray, rated about two-three weeks after treatment
How it was run: as §1

[12] = test system: ZEAMX Corn, Field; test: Preemergence herbicidal evaluation, ZEAMX; assay type: in vivo, Zea mays, L. (Sammel-Bezeichnung); settings: preemergence
How it was run: as §2

[13] = test system: SETVI Foxtail, Green; test: Preemergence herbicidal evaluation, SETVI; assay type: in vivo, Setaria viridis, (L.) Beau; settings: preemergence
How it was run: as §2

[14] = test system: CHEAL Lambsquarters, Common; test: Preemergence herbicidal evaluation, CHEAL; assay type: in vivo, Chenopodium album, L.; settings: preemergence
How it was run: as §2

[15] = test system: GLXMAW Soybean, Williams; test: Preemergence herbicidal evaluation, GLXMAW; assay type: in vivo, Glycine max, (L.) Merr. cv Williams; settings: preemergence
How it was run: as §2

[16] = test system: IPOHE Morningglory, Ivyleaf; test: Postemergence herbicidal evaluation, IPOHE; assay type: in vivo, Ipomoea hederacea, (L.) Jacq.; settings: postemergence spray, rated about two-three weeks after treatment
How it was run: as §1

[17] = test system: AMBEL Ragweed, Common; test: Preemergence herbicidal evaluation, AMBEL; assay type: in vivo, Ambrosia artemisifolia, L.; settings: preemergence
How it was run: as §2

[18] = test system: CHEAL Lambsquarters, Common; test: Postemergence herbicidal evaluation, CHEAL; assay type: in vivo, Chenopodium album, L.; settings: postemergence spray, rated about two-three weeks after treatment
How it was run: as §1

[19] = test system: GLXMAW Soybean, Williams; test: Postemergence herbicidal evaluation, GLXMAW; assay type: in vivo, Glycine max, (L.) Merr. cv Williams; settings: postemergence spray, rated about two-three weeks after treatment
How it was run: as §1

[20] = test system: CASOB Sicklepod; test: Postemergence herbicidal evaluation, CASOB; assay type: in vivo, Cassia obtusifolia, L.; settings: postemergence spray, rated about two-three weeks after treatment
How it was run: as §1

[21] = test system: IPOHE Morningglory, Ivyleaf; test: Preemergence herbicidal evaluation, IPOHE; assay type: in vivo, Ipomoea hederacea, (L.) Jacq.; settings: preemergence
How it was run: as §2

[22] = test system: CASOB Sicklepod; test: Preemergence herbicidal evaluation, CASOB; assay type: in vivo, Cassia obtusifolia, L.; settings: preemergence
How it was run: as §2

[23] = test system: GALAP Galium; test: Postemergence herbicidal evaluation, GALAP; assay type: in vivo, Galium aparine; settings: postemergence spray, rated about two-three weeks after treatment
How it was run: as §1

[24] = test system: ECHOG Barnyardgrass; test: Postemergence herbicidal evaluation, ECHOG; assay type: in vivo, Echinochloa crus-galli, (L.) Beau; settings: postemergence spray, rated about two-three weeks after treatment
How it was run: as §1

With COc1ccc(-n2nnc3cc(F)c(-n4c(=O)cc(C(F)(F)F)n(C)c4=O)cc32)cc1 [Example 27] the “Postemergence herbicidal rating SETVI” value ([1]; 0.008 kg/ha) was 7.0, the “Postemergence herbicidal rating SETVI” value ([1]; 0.016 kg/ha) was 4.0 and the “Postemergence herbicidal rating SETVI” value ([1]; 0.032 kg/ha) was 7.0. The “Postemergence herbicidal rating ORYSAT” value ([2]; 0.008 kg/ha) was 2.5, the “Postemergence herbicidal rating ORYSAT” value ([2]; 0.016 kg/ha) was 4.5 and the “Postemergence herbicidal rating ORYSAT” value ([2]; 0.032 kg/ha) was 4.5. The “Postemergence herbicidal rating ZEAMX” value ([3]; 0.008 kg/ha) was 4.5, the “Postemergence herbicidal rating ZEAMX” value ([3]; 0.016 kg/ha) was 5.0 and the “Postemergence herbicidal rating ZEAMX” value ([3]; 0.032 kg/ha) was 5.5. The GALAP herbicidal rating ([4]; rate 0.016 kg/ha) was 1.0, the GALAP herbicidal rating ([4]; rate 0.032 kg/ha) was 2.0 and the GALAP herbicidal rating ([4]; rate 0.062 kg/ha) was 9.0. The GALAP herbicidal rating ([4]; rate 0.125 kg/ha) was 9.0, the “Postemergence herbicidal rating AMBEL” value ([5]; 0.008 kg/ha) was 5.0 and the “Postemergence herbicidal rating AMBEL” value ([5]; 0.016 kg/ha) was 9.0. The “Postemergence herbicidal rating AMBEL” value ([5]; 0.032 kg/ha) was 9.0, the “Postemergence herbicidal rating TRZAWR” value ([6]; 0.008 kg/ha) was 2.0 and the “Postemergence herbicidal rating TRZAWR” value ([6]; 0.016 kg/ha) was 4.0. The “Postemergence herbicidal rating TRZAWR” value ([6]; 0.032 kg/ha) was 4.5, the TRZAWR herbicidal rating ([7]; rate 0.016 kg/ha) was 1.0 and the TRZAWR herbicidal rating ([7]; rate 0.032 kg/ha) was 2.0. The TRZAWR herbicidal rating ([7]; rate 0.062 kg/ha) was 3.0, the TRZAWR herbicidal rating ([7]; rate 0.125 kg/ha) was 2.0 and the ECHCG herbicidal rating ([8]; rate 0.016 kg/ha) was 1.0. It also gave an ECHCG herbicidal rating ([8]; rate 0.032 kg/ha) of 4.0, an ECHCG herbicidal rating ([8]; rate 0.062 kg/ha) of 9.0 and an ECHCG herbicidal rating ([8]; rate 0.125 kg/ha) of 9.0. For the same molecule, the ORYSAT herbicidal rating ([9]; rate 0.016 kg/ha) was 1.0, the ORYSAT herbicidal rating ([9]; rate 0.032 kg/ha) was 2.0 and the ORYSAT herbicidal rating ([9]; rate 0.062 kg/ha) was 5.0. The ORYSAT herbicidal rating ([9]; rate 0.125 kg/ha) was 6.0, the ABUTH herbicidal rating ([10]; rate 0.032 kg/ha) was 6.0 and the ABUTH herbicidal rating ([10]; rate 0.062 kg/ha) was 9.0. The ABUTH herbicidal rating ([10]; rate 0.125 kg/ha) was 9.0, the “Postemergence herbicidal rating ABUTH” value ([11]; 0.008 kg/ha) was 9.0 and the “Postemergence herbicidal rating ABUTH” value ([11]; 0.016 kg/ha) was 9.0. The “Postemergence herbicidal rating ABUTH” value ([11]; 0.032 kg/ha) was 9.0, the ZEAMX herbicidal rating ([12]; rate 0.016 kg/ha) was 2.0 and the ZEAMX herbicidal rating ([12]; rate 0.032 kg/ha) was 4.0. It also gave a ZEAMX herbicidal rating ([12]; rate 0.062 kg/ha) of 7.0, a ZEAMX herbicidal rating ([12]; rate 0.125 kg/ha) of 7.0 and an SETVI herbicidal rating ([13]; rate 0.016 kg/ha) of 9.0. It also gave an SETVI herbicidal rating ([13]; rate 0.032 kg/ha) of 9.0, an SETVI herbicidal rating ([13]; rate 0.062 kg/ha) of 9.0 and an SETVI herbicidal rating ([13]; rate 0.125 kg/ha) of 9.0. It also gave a CHEAL herbicidal rating ([14]; rate 0.016 kg/ha) of 9.0, a CHEAL herbicidal rating ([14]; rate 0.032 kg/ha) of 9.0 and a CHEAL herbicidal rating ([14]; rate 0.062 kg/ha) of 9.0. For the same molecule, the CHEAL herbicidal rating ([14]; rate 0.125 kg/ha) was 9.0, the GLXMAW herbicidal rating ([15]; rate 0.016 kg/ha) was 1.0 and the GLXMAW herbicidal rating ([15]; rate 0.032 kg/ha) was 1.0. For the same molecule, the GLXMAW herbicidal rating ([15]; rate 0.062 kg/ha) was 5.0, the GLXMAW herbicidal rating ([15]; rate 0.125 kg/ha) was 9.0 and the “Postemergence herbicidal rating IPOHE” value ([16]; 0.008 kg/ha) was 9.0. For the same molecule, the “Postemergence herbicidal rating IPOHE” value ([16]; 0.016 kg/ha) was 9.0, the “Postemergence herbicidal rating IPOHE” value ([16]; 0.032 kg/ha) was 9.0 and the AMBEL herbicidal rating ([17]; rate 0.016 kg/ha) was 0.0. The AMBEL herbicidal rating ([17]; rate 0.032 kg/ha) was 2.0, the AMBEL herbicidal rating ([17]; rate 0.062 kg/ha) was 7.0 and the AMBEL herbicidal rating ([17]; rate 0.125 kg/ha) was 9.0. For the same molecule, the “Postemergence herbicidal rating CHEAL” value ([18]; 0.008 kg/ha) was 4.0, the “Postemergence herbicidal rating CHEAL” value ([18]; 0.016 kg/ha) was 7.0 and the “Postemergence herbicidal rating CHEAL” value ([18]; 0.032 kg/ha) was 9.0. The “Postemergence herbicidal rating GLXMAW” value ([19]; 0.008 kg/ha) was 5.0, the “Postemergence herbicidal rating GLXMAW” value ([19]; 0.016 kg/ha) was 6.0 and the “Postemergence herbicidal rating GLXMAW” value ([19]; 0.032 kg/ha) was 6.0. The “Postemergence herbicidal rating CASOB” value ([20]; 0.008 kg/ha) was 1.0, the “Postemergence herbicidal rating CASOB” value ([20]; 0.016 kg/ha) was 1.0 and the “Postemergence herbicidal rating CASOB” value ([20]; 0.032 kg/ha) was 6.0. For the same molecule, the IPOHE herbicidal rating ([21]; rate 0.016 kg/ha) was 0.0, the IPOHE herbicidal rating ([21]; rate 0.032 kg/ha) was 1.0 and the IPOHE herbicidal rating ([21]; rate 0.062 kg/ha) was 1.0. For the same molecule, the IPOHE herbicidal rating ([21]; rate 0.125 kg/ha) was 5.0, the CASOB herbicidal rating ([22]; rate 0.016 kg/ha) was 0.0 and the CASOB herbicidal rating ([22]; rate 0.032 kg/ha) was 1.0. The CASOB herbicidal rating ([22]; rate 0.062 kg/ha) was 2.0, the CASOB herbicidal rating ([22]; rate 0.125 kg/ha) was 9.0 and the “Postemergence herbicidal rating GALAP” value ([23]; 0.008 kg/ha) was 1.0. For the same molecule, the “Postemergence herbicidal rating GALAP” value ([23]; 0.016 kg/ha) was 4.0, the “Postemergence herbicidal rating GALAP” value ([23]; 0.032 kg/ha) was 9.0 and the “Postemergence herbicidal rating ECHCG” value ([24]; 0.008 kg/ha) was 1.0. The “Postemergence herbicidal rating ECHCG” value ([24]; 0.016 kg/ha) was 1.0 and the “Postemergence herbicidal rating ECHCG” value ([24]; 0.032 kg/ha) was 2.0.

Source: patent US20020111274A1, “1-alkyl-3-[1-(substituted phenyl) benzotriazol-6-yl] uracils” (BASF Aktiengesellschaft, priority 2000, published 2002)
